Values of other authors, collected in US20170100348A1, “Treatment Regime for Chronic Sinusitis” (priority 2015, published 2017).

Tests used:
[1] = test system: Pseudomonas aeruginosa; settings: bacteria and phenolic compound incubated together on a plate
[2] = test system: microbial organisms; settings: background statement
[3] = test system: fungi
[4] = test system: Pseudomonas aerunginosa; settings: background statement, FIG. 1
[5] = test system: streptococcus mutans

Compound	biofilm formation compared to the control [1]	bacteriocidal concentration [2]	bacteriostatic concentration [2]	fungicidal concentration [3]	concentration with activity against Pseudomonas aerunginosa [4]	preventing biofilm formation [5]
Oc1ccccc1 [Phenol]	significant reduction in formation of biofilm	0.04-1.0%	greater than 0.02%	greater than 1.3%	0.5-1.0%	effective
O=C(O[C@@H]1Cc2c(O)cc(O)cc2O[C@@H]1c1cc(O)c(O)c(O)c1)c1cc(O)c(O)c(O)c1 [epigallocatechin gallate]	significant reduction in formation of biofilm	–	–	–	–	–
O=C(OC[C@H]1O[C@@H](OC(=O)c2cc(O)c(O)c(OC(=O)c3cc(O)c(O)c(O)c3)c2)[C@H](OC(=O)c2cc(O)c(O)c(OC(=O)c3cc(O)c(O)c(O)c3)c2)[C@@H](OC(=O)c2cc(O)c(O)c(OC(=O)c3cc(O)c(O)c(O)c3)c2)[C@@H]1OC(=O)c1cc(O)c(O)c(OC(=O)c2cc(O)c(O)c(O)c2)c1)c1cc(O)c(O)c(OC(=O)c2cc(O)c(O)c(O)c2)c1 [tannic acid]	significant reduction in formation of biofilm	–	–	–	–	–
Catechin	significant reduction in formation of biofilm	–	–	–	–	–
